Measured values from US10662445B2, “Process for the production of bio-butanol by fermentation of glycosidic waste matter” (priority 2018, dated 2020).

Experiments:
[1] = system: Clostridium beijerinckii NRRL B-466 (CB); test: Bio-compatibility (solvent toxicity) batch ABE fermentation, CB
Protocol: (§1) Clostridium acetobutylicum NRRL B-582 (ATCC-824) (CA) and Clostridium beijerinckii NRRL B-466(CB) were considered for current investigation to produce bio-butanol from different brewery industry wastes. They were kindly provided by Agricultural Research Station, USDA (USA). The microorganisms were grown and maintained in peptone-yeast extract-glucose (PYG) media under anaerobic condition (vegetative growth) at 37±1° C. and 150 rpm for 24 h and 17 h, respectively, before being transferred into the fermentation medium. The medium (g L^−1) comprised: glucose (10); yeast extract (10); peptone (5); tryptone (5); cysteine-HCl (0.5); K2HPO4 (2.04); KH2PO4 (0.04); FeSO4*7H2O (1.1×10^−3); CaCl2 (8×10^−3); MgSO4*7H2O (0.0192); NaCl (0.08); and NaHCO3 (0.4). 125 mL serum bottles (working volume 50 mL) were used for both butanol production and inoculum development (Maiti et al., January 2016, Maiti et al., August 2015). Anaerobic conditions were maintained within the bottle by sparging N2 for 10 minutes and immediately sealed by an aluminum crimp seal containing silicone septum (Fisher scientific, Canada) by means of a hand operated crimper (E-Z Crimper™, VWR, Ontario, Canada). Prior to culture development, the medium was sterilized for 20 min at 121±1° C. About 10% (v/v) (dry cell weight […]) of microbial culture in its exponential phase of growth (OD600nm=1.3-1.5) was used as inoculum for all the experiments conducted in this investigation.
(§2) Set-1, set-4 and set-5 were included as control-1, control-2 and control-3 respectively. All the experiments were carried out in P2 nutrient media as described later in batch fermentation section.
(§3) Batch fermentation was performed in 125 mL serum vials (working volume of 50 mL) at pH 6.7±0.1. The P2 medium was sterilized at 121±1° C. for 20 min. Prior to fermentation, anaerobic conditions for each bottle were maintained by sparging the medium with N2 for 10 minutes and immediately closing with an aluminum crimp seal containing silicon septum (Fisher scientific, Canada) by means of a hand-operated crimper (E-Z Crimper™, VWR, Ontario, Canada). A modified P2 medium, with the following composition, was used for fermentation experiments: Buffer→KH2PO450 g/L, K2HPO450 g/L, ammonium acetate 220 g/L; Minerals→MgSO4*7H2O 20 g/L, MnSO4*H2O 1 g/L, FeSO4*7H2O 1 g/L, NaCl 1 g/L; Vitamins→thiamin 0.1 g/L, biotin 0.001 g/L). Since brewery industry wastes were already enriched with yeast protein, no additional yeast protein nor peptone were supplemented.
(§4) The fermentation was initiated by inoculating the P2 medium with the seed cultures at a ratio of 10% (v:v). […] Fermentation experiments were performed at 37±1° C. with shaking at 150 rpm for 72 h in duplicates. 1 mL of culture broth from each batch assay was used for metabolite analysis. Data described here present average values from duplicate runs for duplicate samples.
(§5) To determine the different metabolites produced during ABE fermentation (i.e. butanol, ethanol, acetone, butyric acid, and acetic acid) liquid samples from each fermentation broth were collected and analyzed using gas chromatography (GC) (GC7890B, Agilent Technologies, USA) equipped with a FID detector and a HP-INNOWax™ column (30 m, 0.25 mm ID, 0.25 μm df). Isobutanol was used as the internal standard. Before injecting the sample (1 mL) in the GC for products analysis, the sample was centrifuged for 5 minutes at 7650×g and the supernatant was filtered by 0.45 μm syringe filter. The GC conditions comprised: helium carrier gas at a flow rate of 1 mL/min with a temperature ramp from the initial temperature of 50° C. to 150° C.

[2] = Organic-solvent extraction of microbial inhibitors from an agro-waste hydrolysate mimic; assay type: physicochemical; settings: for Ferulic acid removal / Furfural removal / HMF removal / Syringaldehyde removal / TRS removal / Vanillic acid removal / Vanillin removal / TRS (total reducing sugar) after extraction: Vaqueous:Vorganic = 2:1; for TRS (total reducing sugar) after extraction: standard 52.00 g/L; for Inhibitor extraction, phase separation by centrifugal force / Inhibitor extraction, phase separation by separating funnel: solvent bis-(2-ethylhexyl) sebacate
Source text: Media composition was designed according to the inhibitory compound limit concentration reported in the literature for bio-butanol producing solventogenic Clostridia (Baral et al. Microbial inhibitors: formation and effects on acetone-butanol-ethanol fermentation of lignocellulosic biomass. Applied microbiology and biotechnology, Vol. 98(22), 2014: 9151-9172; Qureshi et al. Production of butanol (a biofuel) from agricultural residues: Part I—Use of barley straw hydrolysate. Biomass and bioenergy, Vol. 34(4), 2010: 559-565). Different volume ratio of the hydrolysate mimic and organic solvents, such as (5:1), (3:1), (2:1), (1:1) and (1:2) (vaqueous:vorganic) were tried in order to minimize extractant expenditure. Organic and aqueous phase mixing was carried out by a propeller impeller. Rotation rate (100, 200, 250, 300 and 400 rpm) and operation-time (15, 30, 45, 60 and 90 min) were tested at room temperature (25° C.). A comparative study between settling through separating funnel vs. centrifugal force assisted separation was also made to guarantee an optimal recovery of the broth phase.
A complex mixture of several reduced sugar compounds (e.g. as glucose, fructose, and xylose) and microbial inhibitors (furfural, HMF, acetic acid, levulinic acid, vanillin, vanillic acid, feluric acid and syringaldehyde) were produced during the pretreatment step (hydrolysis). In order to analyse these compounds, liquid samples were collected and analyzed using liquid chromatography-mass spectrometry (LC-MS) and liquid chromatography-tandem mass spectrometry (LC/MS-MS) equipped with a ZORBAX Carbohydrate column (5 μm, 150×4.6 mm ID column) (Agilent Technologies, USA) with D6 glucose as the internal standard and a Biobasic-18 column (5 μm, 250×4.6 mm ID) (Agilent Technologies, USA) with phenylethanol-D5 as the internal standard. […] Methanol water (8:2) and acetonitrile water (8.5:1.5) were used to dilute the sample before inhibitor and carbohydrate analysis. […]

[3] = system: Clostridium acetobutylicum NRRL B-582 (ATCC-824) (CA); test: Bio-compatibility (solvent toxicity) batch ABE fermentation, CA; settings: for ABE / Butanol: CA
Protocol: as §1, §2, §3, §4, §5

[4] = system: solventogenic Clostridia (ABE fermentation); settings: cited from earlier work; for Inhibitory concentration: ABE fermentation
cellulase enzyme = settings: cited from earlier work
[5] = Control-2 (glucose + BIS) + extraction (2:1 mimic:organic solvent) before fermentation
[6] = Set-7 (10 times diluted BIS) + extraction (2:1)
[7] = Set-8 (50 times diluted BIS) + extraction (2:1)
[8] = Extraction 1, hydrolysate mimic
[9] = Extraction 2, hydrolysate mimic
[10] = Extraction 3, hydrolysate mimic
[11] = Extraction 4, hydrolysate mimic
[12] = first stage, ratio 2:1, hydrolysate mimic
[13] = simulated synthetic media as well as waste hydrolysate, ex-situ detoxification
[14] = homogenizer rotational speed 100 rpm
[15] = homogenizer rotational speed 200 rpm
[16] = homogenizer rotational speed 250 rpm
[17] = homogenizer rotational speed 300 rpm
[18] = homogenizer rotational speed 400 rpm

## CCCCC(CC)COC(=O)CCCCCCCCC(=O)OCC(CC)CCCC (stereo not shown) [bis-(2-ethylhexyl) sebacate]
[1]; [5]
  ABE: 13.15 ± 0.3 g/L
  Butanol: 9.58 ± 0.2 g/L
[1]; [6]
  ABE: 11.48 ± 0.4 g/L
  Butanol: 8.62 ± 0.3 g/L
[1]; [7]
  ABE: 11.0 ± 0.3 g/L
  Butanol: 8.4 ± 0.2 g/L
[2]; [8]
  Ferulic acid removal: 97%
  Furfural removal: 79%
  HMF removal: 78%
  Syringaldehyde removal: 93%
  TRS removal: 0%
  Vanillic acid removal: 93%
  Vanillin removal: 95%
  TRS (total reducing sugar) after extraction: 52.00 g/L
[2]; [9]
  Ferulic acid removal: 99%
  Furfural removal: 97%
  HMF removal: 96%
  Syringaldehyde removal: 99%
  TRS removal: 0%
  Vanillic acid removal: 97%
  Vanillin removal: 97%
  TRS (total reducing sugar) after extraction: 52.00 g/L
[2]; [10]
  Ferulic acid removal: 100%
  Furfural removal: 100%
  HMF removal: 100%
  Syringaldehyde removal: 100%
  TRS removal: 0%
  Vanillic acid removal: 100%
  Vanillin removal: 100%
  TRS (total reducing sugar) after extraction: 52.00 g/L
[2]; [11]
  Ferulic acid removal: 100%
  Furfural removal: 100%
  HMF removal: 100%
  Syringaldehyde removal: 100%
  TRS removal: 0%
  Vanillic acid removal: 100%
  Vanillin removal: 100%
  TRS (total reducing sugar) after extraction: 52.00 g/L
[2]; [12]
  Extraction efficiency for phenolic compounds: > 93%
  Extraction efficiency towards furan derivatives: 78-79%
[2]; set-10 and set-11 (10 and 50 times diluted BIS), extraction 2:1
  Removal of the inhibitors from the mimic synthetic media: > 99%
[2]; [13]
  Extraction of furan derivatives: More than 80%
  Extraction of phenolic compounds: more than 95%
  Extraction of reducing sugar: almost no extraction
[3]; [5]
  ABE: 13.96 ± 0.3 g/L
  Butanol: 10.25 ± 0.5 g/L
[3]; [6]
  ABE: 12.5 ± 0.2 g/L
  Butanol: 9.13 ± 0.2 g/L
[3]; [7]
  ABE: 12.2 ± 0.3 g/L
  Butanol: 9.1 ± 0.3 g/L
[3]; set-9: control 2 after extraction, both bacterial strains
  Average increase in bio-butanol production in comparison with control 1/set-1: 8-10%

## COc1cc(/C=C/C(=O)O)ccc1O [Ferulic acid, ferulic acid]
[4]
  Inhibitory concentration: > 0.3 g/L
  Concentration that inhibited butanol production: 1. (>0.3 g/L) inhibited butanol production
[2]; [14]
  Inhibitor extraction, phase separation by centrifugal force: 97%
  Inhibitor extraction, phase separation by separating funnel: 94%
[2]; [15]
  Inhibitor extraction, phase separation by centrifugal force: 96%
  Inhibitor extraction, phase separation by separating funnel: 94%
[2]; [16]
  Inhibitor extraction, phase separation by centrifugal force: 97%
  Inhibitor extraction, phase separation by separating funnel: 93%
[2]; [17]
  Inhibitor extraction, phase separation by centrifugal force: 95%
  Inhibitor extraction, phase separation by separating funnel: 94%
[2]; [18]
  Inhibitor extraction, phase separation by centrifugal force: 97%
  Inhibitor extraction, phase separation by separating funnel: 96%

## COc1cc(C=O)cc(OC)c1O [Syringaldehyde, syringaldehyde]
[4]
  Inhibitory concentration: >0.05 g/L
  Concentration that stopped ABE production: 2. (0.3-1.0 g/L) stopped ABE production
Cellulase enzyme
  Concentration showing strong inhibition on cellulase enzyme activity: 1. (0.05 g/L) showed strong inhibition
[2]; [14]
  Inhibitor extraction, phase separation by centrifugal force: 100%
  Inhibitor extraction, phase separation by separating funnel: 100%
[2]; [15]
  Inhibitor extraction, phase separation by centrifugal force: 100%
  Inhibitor extraction, phase separation by separating funnel: 100%
[2]; [16]
  Inhibitor extraction, phase separation by centrifugal force: 100%
  Inhibitor extraction, phase separation by separating funnel: 100%
[2]; [17]
  Inhibitor extraction, phase separation by centrifugal force: 100%
  Inhibitor extraction, phase separation by separating funnel: 100%
[2]; [18]
  Inhibitor extraction, phase separation by centrifugal force: 100%
  Inhibitor extraction, phase separation by separating funnel: 100%

## COc1cc(C(=O)O)ccc1O [Vanillic acid, vanillic acid]
[4]
  Inhibitory concentration: >1 g/L
  Concentration that stopped bio-butanol production: 1. (>1 g/L) stopped bio-butanol
[2]; [14]
  Inhibitor extraction, phase separation by centrifugal force: 92%
  Inhibitor extraction, phase separation by separating funnel: 90%
[2]; [15]
  Inhibitor extraction, phase separation by centrifugal force: 93%
  Inhibitor extraction, phase separation by separating funnel: 91%
[2]; [16]
  Inhibitor extraction, phase separation by centrifugal force: 94%
  Inhibitor extraction, phase separation by separating funnel: 93%
[2]; [17]
  Inhibitor extraction, phase separation by centrifugal force: 94%
  Inhibitor extraction, phase separation by separating funnel: 93%
[2]; [18]
  Inhibitor extraction, phase separation by centrifugal force: 96%
  Inhibitor extraction, phase separation by separating funnel: 93%
